According to patent US5498710A, “Alkyl ether analogues of benzoporphyrin derivatives” (Health Research, Inc., priority 1994, dated 1996):
“Also recorded” adds a separate entry of the source.

Legend:
[1] = Electronic absorption, red absorption maximum; type: physicochemical; details: maximum red absorption peak, Table 3
Experimental: M.p.s were measured on a Thomas/Bristoline microscopic hot stage apparatus and were uncorrected. Silica gel 60 (70-230 and 230-400 mesh, Merck) or neutral alumina (Merck; usually Brockmann Grade III, i. e., deactivated with 6% water) were used for column chromatography. Preparative thin layer chromatography was carried out on 20×20 cm glass plates coated with Merck G 254 silica gel (1 mm thick). Analytical thin layer chromatography (TLC) was performed using merck 60 F254 silica gel (precoated sheets, 0.2 mm thick). Reactions were monitored by TLC and spectrophotometry and were carried out under nitrogen and in the dark. ^1 HNMR spectra were obtained in deuteriochloroform solution at 300 MHz using a General Electric QE300 spectrometer; chemical shifts are expressed in ppm relative to chloroform (7.258 ppm). Elemental analyses were performed at the Midwest Microlab, Ltd., Indiana, USA. Unless stated otherwise, electronic absorption spectra were measured in dichloromethane solution using a Hewlett-Packard 8450A spectrophotometer. Mass spectra were obtained at the Mass Spectrometry Facility, University of California, San Francisco and at the Department of Biophysics, Roswell Park Cancer Institute, Buffalo.

SMT-F tumor [2] = assay: In vivo antitumor (photodynamic) activity, SMT-F tumors in DBA/2 mice; parameters: species or system DBA/2 Ha-DD mouse
Experimental: Tumor Response and Foot Response Experiments: For tumor response experiments (see Table 3), a 1mm^3 piece of SMT-F tumor from a donor DBA/2 Ha-DD mouse was implanted subcutaneously with a trocar into the axilla of a 5-7 week old female DBA/2 Ha-DD mouse. When the tumor had grown to about 4mm diameter, mice were injected intravenously (i.v.) with photosensitizers at various doses. At various time after injection, mice were restrained in Plexiglas® holders and each tumor was illuminated with 135 J/cm^2 light from a dye laser 171 (spectra physics). The light dose rate was 75 mW/cm^2 as measured with a PTR Optics […]. The percentage of short term control (non-palpable tumors) was recorded daily. For our study 6 mice/group were used.
In vivo Biological Activity: The in vivo photosensitizing ability of all the sensitizers was compared with that of commercial BPD in DBA/2 mice bearing subcutaneously implanted SMT-F tumors, a method previously described by Dougherty et al. All photosensitizers, including commercial BPD (mixture of 21 and 22) were first dissolved in a minimum quantity of Tween 80 and then diluted with 0.9% saline, to a final concentration of 1% Tween 80.
It can be seen from Table 3 that commercial BPD was quite effective at a dose of 5.0 mg/kg, 3 h post i.v. injection (4 out of six mice were tumor free at day 30). […] However, replacement of the vinyl with a 1-hexyloxyethyl group induced a remarkable difference in photosensitizing activity.

SMT-F tumor [3] = assay: as above; parameters: species or system DBA/2 Ha-DD mouse; remark: listed apart in the source
hind foot = assay: Foot-response experiments (skin phototoxicity); type: in vivo, DBA/2 HaDD mice
Experimental: Foot-response experiments were carried out on 5-7 week old female DBA/2 HaDD mice. Sensitizers were injected i.v. at the following doses: Photofrin® in normal saline, BPD (industrial preparation) in 1% Tween 80; n-hexyl ether derivative 40 in 1% Tween 80. After 1 or 5 days the mice were restrained without anesthesia in aluminum holders and one hind foot of each mouse was illuminated with light from a dye laser 171 (Spectra Physics). Illumination conditions (i.e., light dose, dose rate and wavelength) were as follows: Photofrin®, 5 mg/kg; BPD 5.0 mg/k (3.0 h), n-hexyl ether derivative 40 5.0 mg/kg (24 h) and 1.0 mg/kg (3 h). Light dose was measured with a Coherent 210 power meter and wavelength was measured with a PTR Optics monochromator. Sensitizer does for the foot response experiments corresponded to the lowest dose required to give maximum tumor control measured 7 days after treatment (see Table 3). Foot response was graded daily according to the scale in the legend to FIG. 13. Animals were euthanized immediately after peak foot scores were obtained.

## CCCCCCOC(C)C1=C(C)c2cc3[nH]c(cc4nc(cc5[nH]c(cc1n2)c(C)c5CCC(=O)OC)C(CCC(=O)OC)=C4C)C1(C)C3=CC=C(C(=O)OC)C1C(=O)OC (mixture of isomers) [Compound 40, 8-(1-Hexyloxyethyl)benzoporphyrin Derivative]
[1]
  absorption maximum wavelength: 676 nm
SMT-F tumor [2]; 1.0 mg/kg i.v., light 3 h after injection, day 1-2
  Tumor response (nonpalpable tumor), 1-2 d: 6/6
SMT-F tumor [2]; 1.0 mg/kg i.v., light 3 h after injection, day 7
  Tumor response (nonpalpable tumor), 7 d: 3/6
SMT-F tumor [2]; 1.0 mg/kg i.v., light 3 h after injection, day 30
  Tumor response (nonpalpable tumor), 30 d: 3/6
SMT-F tumor [2]; 1.0 mg/kg, light 3 h post i.v. injection where stated
  antitumor / photosensitizing activity: active
SMT-F tumor [2]; 1.0 mg/kg, trans isomers compared
  in vivo activity versus vinyl or ring B isomer: more active than the ring "B" modified isomer 45
SMT-F tumor [2]; mice, compared with BPD (mixture of 21 and 22)
  in vivo photosensitizing efficacy / antitumor activity compared with BPD: significantly more active than the industrially prepared benzoporphyrin derivative; also recorded: better photosensitizing efficacy than benzoporphyrin derivative monocarboxylic acid; also recorded: better anti-tumor activity than BPD-MA
SMT-F tumor [3]; 5.0 mg/kg i.v., light 24 h after injection, day 1-2
  Tumor response (nonpalpable tumor), 1-2 d: 6/6
SMT-F tumor [3]; 5.0 mg/kg i.v., light 24 h after injection, day 7
  Tumor response (nonpalpable tumor), 7 d: 6/6
SMT-F tumor [3]; 5.0 mg/kg i.v., light 24 h after injection, day 30
  Tumor response (nonpalpable tumor), 30 d: 5/6
SMT-F tumor [3]; 5.0 mg/kg, light 24 h post i.v. injection
  tumorcidal / photosensitizing activity: excellent tumorcidal activity
Hind foot; 1.0 mg/kg, 3 h post injection
  skin phototoxicity compared with Photofrin and BPD: reduced skin phototoxicity
Hind foot; 5.0 mg/kg, 24 h post injection
  skin phototoxicity compared with Photofrin and BPD: reduced skin phototoxicity
Hind foot; dose not given
  skin phototoxicity: reduced residual skin phototoxicity compared with Photofrin; also recorded: reduced skin phototoxicity compared with BPD-MA and Photofrin
